Read-outs that look alike come from different tables or passages of the source.
Legend:
[1] = Aqueous solubility (statement); format: physicochemical; conditions: aqueous solutions
[2] = Phase 1 single ascending dose (SAD) pharmacokinetics, fasted; format: in vivo, human; conditions: for Vd/F: read-out: Vz/F; for k el: read-out: λz (converted)
Method: This clinical trial was a randomized, double-blind, placebo controlled single ascending (SAD) and multiple ascending (MAD) study to evaluate the safety, tolerability, and pharmacokinetics of vamorolone in health adult subjects. The study protocol and its amendments were reviewed and approved by an Institutional Review Board. It was conducted in accordance with the principles of the Declaration of Helsinki in place at the time of study conduct and in compliance with the International Council on Harmonisation (ICH) E6 Guideline for Good Clinical Practice.
In the SAD part of the study, 7 cohorts were to be enrolled. Eight subjects were assigned to each of Cohorts 1 to 5 and 7 and received a single oral dose of vamorolone (planned as 0.1 mg/kg, 0.3 mg/kg, 1.0 mg/kg, 3.0 mg/kg, 8.0 mg/kg, and 20.0 mg/kg, respectively) or placebo under fasted conditions. Six subjects were assigned to Cohort 6 and were administered a single oral dose of 8.0 mg/kg vamorolone within 30 min of beginning a high fat/high calorie meal.
Subjects in Cohorts 1 through 5 and 7 were randomized to receive vamorolone or placebo in a 3:1 ratio (6 subjects received vamorolone, and 2 subjects received placebo) sequentially. In Cohort 1, 3 sentinel subjects were administered vamorolone or placebo in a 2:1 ratio. Following a review of sentinel safety and tolerability data (including reported adverse events [AEs], clinical laboratory tests, vital signs, and electrocardiograms [ECGs]), the remaining 5 subjects were randomized to receive vamorolone or placebo in a 4:1 ratio and dosed no earlier than 48 h after sentinel dosing. In Cohorts 2 to 5, and 7, subjects were administered vamorolone or placebo in a 3:1 ratio. Once Cohort 5 was completed and safety data had been reviewed, subjects in Cohort 6 were administered a single oral dose of 8.0 mg/kg vamorolone within 30 min of beginning a standard high fat/high calorie meal.
The initial starting dose for the vamorolone SAD study was chosen based on 10% of the NOAEL in the most sensitive species (mouse) (0.1 mg/kg). Doses were then escalated by 3-fold increments for 6 dose groups (0.1, 0.3, 1.0, 3.0, 9.0, 20.0 mg/kg). Eight adult male volunteers were studied in each dose group (6 drug-treated, 2 placebo).

adrenal suppression = system: adrenal suppression; design: method as in PMID 23498916, PMID 24014378, PMID 27133900; conditions: in vitro assays in multiple cell types; cited from earlier work
[3] = system: blood glucose (insulin resistance biomarker); assay: Blood glucose, SAD; format: in vivo, human; conditions: mean±SEM
Method: All biomarkers were analyzed using standard immunoassays by PRA.
Glucocorticoids were originally named as such due to their potent and acute effects on glucose metabolism, where liver and muscle pathways for insulin signaling are rapidly and profoundly affected, creating a state of insulin resistance. […] Fasting insulin and glucose levels were assessed in all dose groups in the vamorolone Phase 1 SAD and MAD.

[4] = male, human, plasma, single oral 0.1 mg/kg, fasted, geometric mean (%CV)
[5] = male, human, plasma, single oral 0.3 mg/kg, fasted, geometric mean (%CV)
[6] = male, human, plasma, single oral 1 mg/kg, fasted, geometric mean (%CV)
[7] = male, human, plasma, single oral 3 mg/kg, fasted, geometric mean (%CV)
[8] = male, human, plasma, single oral 8 mg/kg, fasted, geometric mean (%CV)
[9] = male, human, plasma, single oral 20 mg/kg, fasted, geometric mean (%CV)

C[C@@H]1C[C@H]2[C@@H]3CCC4=CC(=O)C=C[C@]4(C)C3=CC[C@]2(C)[C@@]1(O)C(=O)CO [vamorolone]
solubility [1]: very poor solubility in aqueous solutions
slope of log plot of AUC(inf) vs dose ([2]; SAD 0.1-20 mg/kg): ~1.0
slope of log plot of Cmax vs dose ([2]; SAD 0.1-20 mg/kg): < 1.0
CL/F ([2]; male, human, plasma, oral, across single 0.1 to 20 mg/kg doses, fasted, read-out: CL/F, range of geometric mean values): 1.76 to 2.31 L/h/kg
half-life ([2]; male, human, plasma, oral, healthy subjects, approximate overall, read-out: half-life (converted)): ~3 h
AUC(0-inf) [2, 4]: 0.0495 µg·h/mL
AUC(0-t) [2, 4]: 0.0419 µg·h/mL
Cmax [2, 4]: 0.0131 µg/mL
CL/F ([2]; male, human, plasma, single oral 0.1 mg/kg, fasted, geometric mean (%CV), read-out: CL/F (converted)): 2.02 L/h/kg
Vd/F [2, 4]: 4.98 L/kg
half-life ([2]; male, human, plasma, single oral 0.1 mg/kg, fasted, geometric mean (%CV), read-out: t½ (converted)): 1.71 h
k el [2, 4]: 0.000113 s⁻¹
Tmax ([2]; male, human, plasma, single oral 0.1 mg/kg, fasted, median, read-out: Tmax): 1.5 h
AUC(0-inf) [2, 5]: 0.17 µg·h/mL
AUC(0-t) [2, 5]: 0.161 µg·h/mL
Cmax [2, 5]: 0.0508 µg/mL
CL/F ([2]; male, human, plasma, single oral 0.3 mg/kg, fasted, geometric mean (%CV), read-out: CL/F (converted)): 1.76 L/h/kg
Vd/F [2, 5]: 4.07 L/kg
half-life ([2]; male, human, plasma, single oral 0.3 mg/kg, fasted, geometric mean (%CV), read-out: t½ (converted)): 1.6 h
k el [2, 5]: 0.00012 s⁻¹
Tmax ([2]; male, human, plasma, single oral 0.3 mg/kg, fasted, median, read-out: Tmax): 1.5 h
AUC(0-inf) [2, 6]: 0.5 µg·h/mL
AUC(0-t) [2, 6]: 0.486 µg·h/mL
Cmax [2, 6]: 0.122 µg/mL
CL/F ([2]; male, human, plasma, single oral 1 mg/kg, fasted, geometric mean (%CV), read-out: CL/F (converted)): 2 L/h/kg
Vd/F [2, 6]: 5.22 L/kg
half-life ([2]; male, human, plasma, single oral 1 mg/kg, fasted, geometric mean (%CV), read-out: t½ (converted)): 1.81 h
k el [2, 6]: 0.000106 s⁻¹
Tmax ([2]; male, human, plasma, single oral 1 mg/kg, fasted, median, read-out: Tmax): 1.75 h
AUC(0-inf) [2, 7]: 1.6 µg·h/mL
AUC(0-t) [2, 7]: 1.58 µg·h/mL
Cmax [2, 7]: 0.305 µg/mL
CL/F ([2]; male, human, plasma, single oral 3 mg/kg, fasted, geometric mean (%CV), read-out: CL/F (converted)): 1.88 L/h/kg
Vd/F [2, 7]: 6.76 L/kg
half-life ([2]; male, human, plasma, single oral 3 mg/kg, fasted, geometric mean (%CV), read-out: t½ (converted)): 2.5 h
k el [2, 7]: 7.7e-05 s⁻¹
Tmax ([2]; male, human, plasma, single oral 3 mg/kg, fasted, median, read-out: Tmax): 1.75 h
AUC(0-inf) [2, 8]: 3.6 µg·h/mL
AUC(0-t) [2, 8]: 4 µg·h/mL
Cmax [2, 8]: 0.718 µg/mL
CL/F ([2]; male, human, plasma, single oral 8 mg/kg, fasted, geometric mean (%CV), read-out: CL/F (converted)): 2.22 L/h/kg
Vd/F [2, 8]: 10.4 L/kg
half-life ([2]; male, human, plasma, single oral 8 mg/kg, fasted, geometric mean (%CV), read-out: t½ (converted)): 3.25 h
k el [2, 8]: 5.93e-05 s⁻¹
Tmax ([2]; male, human, plasma, single oral 8 mg/kg, fasted, median, read-out: Tmax): 1.78 h
AUC(0-inf) [2, 9]: 8.65 µg·h/mL
AUC(0-t) [2, 9]: 8.54 µg·h/mL
Cmax [2, 9]: 1.65 µg/mL
CL/F ([2]; male, human, plasma, single oral 20 mg/kg, fasted, geometric mean (%CV), read-out: CL/F (converted)): 2.31 L/h/kg
Vd/F [2, 9]: 14.2 L/kg
half-life ([2]; male, human, plasma, single oral 20 mg/kg, fasted, geometric mean (%CV), read-out: t½ (converted)): 4.26 h
k el [2, 9]: 4.52e-05 s⁻¹
Tmax ([2]; male, human, plasma, single oral 20 mg/kg, fasted, median, read-out: Tmax): 1.5 h
Tmax ([2]; male, human, serum, oral suspension formulation (4% vamorolone by weight), read-out: time of peak serum concentrations): ~3 h
CL/F ([2]; single oral 0.1 mg/kg, fasted, geometric mean (%CV)): 168 (20.8) (6) L/h
CL/F ([2]; single oral 0.3 mg/kg, fasted, geometric mean (%CV)): 142 (14.4) (6) L/h
CL/F ([2]; single oral 1 mg/kg, fasted, geometric mean (%CV)): 165 (12.0) (6) L/h
CL/F ([2]; single oral 3 mg/kg, fasted, geometric mean (%CV)): 152 (18.5) (6) L/h
CL/F ([2]; single oral 8 mg/kg, fasted, geometric mean (%CV)): 196 (57.6) (4) L/h
CL/F ([2]; single oral 20 mg/kg, fasted, geometric mean (%CV)): 180 (29.8) (4) L/h
adrenal suppressive activity relative to traditional glucocorticoids (adrenal suppression): ~ 1%
Blood glucose ([3]; SAD 0.1 mg/kg, 24 Hours Post Dose): 95 ± 4 mg/dL
Blood glucose ([3]; SAD 0.1 mg/kg, 48 Hours Post Dose): 95 ± 3 mg/dL
Blood glucose ([3]; SAD 0.1 mg/kg, 72 Hours Post Dose): 94 ± 4 mg/dL
Blood glucose ([3]; SAD 0.1 mg/kg, <2 hours predose, baseline): 95 ± 3 mg/dL
Blood glucose ([3]; SAD 0.1 mg/kg, Day -1, baseline): 99 ± 3 mg/dL
Blood glucose ([3]; SAD 0.1 mg/kg, Follow-up Visit): 98 ± 4 mg/dL
Blood glucose ([3]; SAD 0.1 mg/kg, Screening, baseline): 94 ± 4 mg/dL
Blood glucose ([3]; SAD 0.3 mg/kg, 24 Hours Post Dose): 91 ± 2 mg/dL
Blood glucose ([3]; SAD 0.3 mg/kg, 48 Hours Post Dose): 90 ± 2 mg/dL
Blood glucose ([3]; SAD 0.3 mg/kg, 72 Hours Post Dose): 91 ± 1 mg/dL
Blood glucose ([3]; SAD 0.3 mg/kg, <2 hours predose, baseline): 93 ± 2 mg/dL
Blood glucose ([3]; SAD 0.3 mg/kg, Day -1, baseline): 91 ± 2 mg/dL
Blood glucose ([3]; SAD 0.3 mg/kg, Follow-up Visit): 88 ± 4 mg/dL
Blood glucose ([3]; SAD 0.3 mg/kg, Screening, baseline): 93 ± 2 mg/dL
Blood glucose ([3]; SAD 1.0 mg/kg, 24 Hours Post Dose): 86 ± 3 mg/dL
Blood glucose ([3]; SAD 1.0 mg/kg, 48 Hours Post Dose): 88 ± 3 mg/dL
Blood glucose ([3]; SAD 1.0 mg/kg, 72 Hours Post Dose): 86 ± 3 mg/dL
Blood glucose ([3]; SAD 1.0 mg/kg, <2 hours predose, baseline): 93 ± 3 mg/dL
Blood glucose ([3]; SAD 1.0 mg/kg, Day -1, baseline): 92 ± 3 mg/dL
Blood glucose ([3]; SAD 1.0 mg/kg, Follow-up Visit): 93 ± 2 mg/dL
Blood glucose ([3]; SAD 1.0 mg/kg, Screening, baseline): 92 ± 3 mg/dL
Blood glucose ([3]; SAD 3.0 mg/kg, 24 Hours Post Dose): 93 ± 3 mg/dL
Blood glucose ([3]; SAD 3.0 mg/kg, 48 Hours Post Dose): 89 ± 4 mg/dL
Blood glucose ([3]; SAD 3.0 mg/kg, 72 Hours Post Dose): 88 ± 3 mg/dL
Blood glucose ([3]; SAD 3.0 mg/kg, <2 hours predose, baseline): 92 ± 4 mg/dL
Blood glucose ([3]; SAD 3.0 mg/kg, Day -1, baseline): 89 ± 3 mg/dL
Blood glucose ([3]; SAD 3.0 mg/kg, Follow-up Visit): 91 ± 5 mg/dL
Blood glucose ([3]; SAD 3.0 mg/kg, Screening, baseline): 96 ± 5 mg/dL
Blood glucose ([3]; SAD 8.0 mg/kg, 24 Hours Post Dose): 91 ± 4 mg/dL
Blood glucose ([3]; SAD 8.0 mg/kg, 48 Hours Post Dose): 87 ± 3 mg/dL
Blood glucose ([3]; SAD 8.0 mg/kg, 72 Hours Post Dose): 89 ± 4 mg/dL
Blood glucose ([3]; SAD 8.0 mg/kg, <2 hours predose, baseline): 86 ± 3 mg/dL
Blood glucose ([3]; SAD 8.0 mg/kg, Day -1, baseline): 90 ± 5 mg/dL
Blood glucose ([3]; SAD 8.0 mg/kg, Follow-up Visit): 94 ± 4 mg/dL
Blood glucose ([3]; SAD 8.0 mg/kg, Screening, baseline): 89 ± 4 mg/dL
Blood glucose ([3]; SAD 20.0 mg/kg, 24 Hours Post Dose): 91 ± 2 mg/dL
Blood glucose ([3]; SAD 20.0 mg/kg, 48 Hours Post Dose): 86 ± 2 mg/dL
Blood glucose ([3]; SAD 20.0 mg/kg, 72 Hours Post Dose): 88 ± 2 mg/dL
Blood glucose ([3]; SAD 20.0 mg/kg, <2 hours predose, baseline): 97 ± 4 mg/dL
Blood glucose ([3]; SAD 20.0 mg/kg, Day -1, baseline): 94 ± 3 mg/dL
Blood glucose ([3]; SAD 20.0 mg/kg, Follow-up Visit): 89 ± 3 mg/dL
Blood glucose ([3]; SAD 20.0 mg/kg, Screening, baseline): 93 ± 3 mg/dL

Source: publication PMC6136660 (Steroids, 2018)
